The target of the test is T1, Toll-like receptor 7 (Homo sapiens, UniProt Q9NYK1).
T1 sequence (Q9NYK1 whole entry): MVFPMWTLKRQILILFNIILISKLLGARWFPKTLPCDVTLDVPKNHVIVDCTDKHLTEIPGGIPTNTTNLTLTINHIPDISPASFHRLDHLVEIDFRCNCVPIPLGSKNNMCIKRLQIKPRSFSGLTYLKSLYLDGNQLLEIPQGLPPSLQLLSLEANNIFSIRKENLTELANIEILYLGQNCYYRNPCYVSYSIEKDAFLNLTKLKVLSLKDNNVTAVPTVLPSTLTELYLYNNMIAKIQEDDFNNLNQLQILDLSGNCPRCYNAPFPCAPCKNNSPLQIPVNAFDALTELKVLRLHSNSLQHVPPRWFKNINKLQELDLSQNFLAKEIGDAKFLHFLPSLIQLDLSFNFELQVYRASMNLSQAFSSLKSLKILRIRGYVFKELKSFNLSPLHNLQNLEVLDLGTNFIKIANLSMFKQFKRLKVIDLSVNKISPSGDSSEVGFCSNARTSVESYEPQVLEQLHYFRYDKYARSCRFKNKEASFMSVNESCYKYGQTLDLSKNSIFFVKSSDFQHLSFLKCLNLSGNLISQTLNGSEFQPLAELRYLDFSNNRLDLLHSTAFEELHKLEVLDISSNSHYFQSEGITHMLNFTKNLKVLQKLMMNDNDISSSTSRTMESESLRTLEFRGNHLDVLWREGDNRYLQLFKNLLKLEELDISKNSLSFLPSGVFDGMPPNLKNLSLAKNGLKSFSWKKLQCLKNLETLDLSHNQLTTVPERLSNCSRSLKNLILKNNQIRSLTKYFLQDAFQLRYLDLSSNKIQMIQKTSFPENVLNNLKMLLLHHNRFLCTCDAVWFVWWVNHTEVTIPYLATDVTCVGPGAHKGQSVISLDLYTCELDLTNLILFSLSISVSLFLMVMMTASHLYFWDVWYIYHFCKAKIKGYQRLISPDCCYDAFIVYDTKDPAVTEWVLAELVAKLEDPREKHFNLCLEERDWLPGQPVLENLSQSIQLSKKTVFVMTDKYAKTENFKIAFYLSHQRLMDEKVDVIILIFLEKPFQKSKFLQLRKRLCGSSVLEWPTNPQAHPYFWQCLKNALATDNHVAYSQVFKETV
Nature of the test: Agonist activity at human TLR7 in HEK-Blue hTLR7 cells assessed as activation of NFkappaB by SEAP reporter gene based spectrophotometry assay. Background: In a reporter assay the amount or activity of a reporter protein is the signal.

Each structure is given as a SMILES string.

For `CC[C@H](C)c1nc2c(N)nc3ccccc3c2s1`, the EC50 turned out to be 8.11 µM. For `CCCc1nc2c(N)nc3ccc(N)cc3c2s1` the value was 8.19 µM.

A word on the EC50: it is the concentration at which the effect is half-maximal.
